From US10647690B2, “2,3-epoxy succinyl derivative, preparation method and use thereof” (Institute of Pharmacology and Toxicology Academy of …, priority 2016, dated 2020)
Where two headings read alike, the source gives them in different places.

Tests used:
Cathepsin K = target: T1, Cathepsin K (Homo sapiens, UniProt P43235); test: IC50 determination against Cathepsin K (Biovision kit K150-100); type: biochemical; conditions: CTSK
T1 construct: purchased Biovision K150-100
T1 sequence (P43235 115-329): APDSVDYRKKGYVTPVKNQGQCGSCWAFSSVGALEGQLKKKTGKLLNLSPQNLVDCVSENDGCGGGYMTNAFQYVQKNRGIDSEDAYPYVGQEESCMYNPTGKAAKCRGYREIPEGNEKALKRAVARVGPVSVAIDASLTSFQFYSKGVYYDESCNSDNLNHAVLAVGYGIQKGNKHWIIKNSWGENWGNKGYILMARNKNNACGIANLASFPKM
Description: (§1) 2. Method for determining IC50 of compounds against cathepsin:
IC50 of compounds against Cathepsin K was determined by using Cathepsin K Inhibitor Screening Kit (Product No. K150-100) from Biovision Company;
2.1.1.1 Preparation of Cathepsin K solution: Cathepsin K enzyme (23 μl) and Cathepsin K reagent (46 μl) were added to Cathepsin K buffer (2231 μl), and mixed well, to prepare Cathepsin K enzyme solution with a volume of 2.3 ml, which was placed on ice for further use.
(§2) 2.1.2 Preparation of compound solutions: 30 mM and 10 mM compound stock solutions, and control compounds were gradiently diluted in DMSO at a ratio of 1:3, wherein the maximum dilution fold was 19683; the gradiently diluted compound solution (3 μl) was added to Cathepsin K, B, L, and S buffer (27 μl), respectively, and mixed well, wherein the control compounds (FF-FMK, F-F-FMK, FF-FMK and Z-FF-FMK) were at the concentrations of 66.67, 22.22, 7.41, 2.47, 0.82, 0.27, 0.091, 0.03, 0.01, 0.0034 and 0 μM, respectively, the test compounds were at the concentrations of 1000, 333.3, 111.1, 37, 12.3, 4.1, 1.4, 0.46, 0.15, 0.05 and 0 μM, respectively, and the final concentration of DMSO was 10%.
2.1.3.1 Cathepsin K: Cathepsin K substrate (90 μl) was added to Cathepsin K buffer (1710 μl), and mixed well, to prepare Cathepsin K substrate solution with a volume of 1.8 ml, which was placed on ice for further use.
(§3) Method for screening cathepsin inhibitors: the cathepsin solution (prepared in Item 2.1.1) was added to a 384-well plate (ProxiPlate-384 Plus, Perkinelmer) at 10 μl/well, and centrifuged at 1000 rpm for Imin; the compound solution (prepared in Item 2.1.2) was then added at 2 μl/well, and every concentration was repeated in two wells; the final concentrations of the test compounds were 100, 33.3, 11.1, 3.7, 1.23, 0.41, 0.14, 0.046, 0.015, 0.005 and 0 μM, respectively, wherein the final concentration of DMSO was 1%; after centrifugation at 1000 rpm for 1 min, the plate was put in a 25° C. incubator for 15 min; the cathepsin substrate solution was then added at 8 µl/well, and centrifuged at 1000 rpm for 1 min; and finally, the fluorescence signal was read in Enspire, wherein the exciting light was at a wavelength of 400 nm, the emitting light was at a wavelength of 505 nm, and continuous reading was performed at 37° C. for 120 min.
(§4) Data analysis: the slope (S) for all the samples was calculated by ΔRFU(RFU2−RFU1) and time ΔT(T2−T1), including negative control (Enzyme Control, EC) and positive control (Inhibitor Control, IC: 10 μM (FF-FMK, F-F-FMK, FF-FMK and Z-FF-FMK), and the calculation formula was as followed: Relative inhibition rate %=(SEC−SS)/(SEC−SIC)*100. The IC50 for each compound was obtained by means of fitting by software GraphPad Prism 5.0.

Cathepsin S = target: T2, Cathepsin S (Homo sapiens, UniProt P25774); test: IC50 determination against Cathepsin S (Biovision kit K149-100); type: biochemical; conditions: CTSS
T2 construct: purchased Biovision K149-100
Description: as §1
IC50 of compounds against Cathepsin S was determined by using Cathepsin S Inhibitor Screening Kit (Product No. K149-100) from Biovision Company.
2.1.1.4 Preparation of Cathepsin S solution: Cathepsin S enzyme (46 μl) was added to Cathepsin S buffer (2254 μl), and mixed well, to prepare Cathepsin S enzyme solution with a volume of 2.3 ml, which was placed on ice for further use.
as §2
2.1.3.4 Cathepsin S: Cathepsin S substrate (90 μl) was added to Cathepsin S buffer (1710 μl), and mixed well, to prepare Cathepsin S substrate solution with a volume of 1.8 ml, which was placed on ice for further use.
as §3, §4

[1] = Exp-1, read-out: IC50 (nM) Exp-1
[2] = Exp-2, read-out: IC50 (nM) Exp-2
[3] = average of Exp-1 and Exp-2, read-out: Ave of IC50

T2 sequence (P25774 115-331): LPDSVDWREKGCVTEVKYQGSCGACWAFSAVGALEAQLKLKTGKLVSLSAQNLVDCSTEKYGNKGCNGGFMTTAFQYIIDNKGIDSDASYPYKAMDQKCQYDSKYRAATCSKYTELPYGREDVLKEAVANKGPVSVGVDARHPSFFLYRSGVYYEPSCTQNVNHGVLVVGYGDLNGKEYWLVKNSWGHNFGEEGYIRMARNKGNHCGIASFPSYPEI

Structure (SMILES) | IC50 (Cathepsin K; [1]) | IC50 (Cathepsin K; [2]) | IC50 (Cathepsin K; [3]) | IC50 (Cathepsin S; [1]) | IC50 (Cathepsin S; [2]) | IC50 (Cathepsin S; [3])
CCOC(=O)[C@H]1O[C@@H]1C(=O)N[C@@H](CCSC)C(=O)NCCCCc1ccccc1 [Compound 40, (2s, 3s)-2-ethoxycarbonyl-3-[2-[(s)-4-methylthio-1-carbonyl-1-(4-phenylbutylamino)butane]formylamino]epoxysuccinic acid] | 704 nM | 606 nM | 655 nM | 834 nM | 1510 nM | 1170 nM
CCOC(=O)[C@H]1O[C@@H]1C(=O)N[C@@H](CCSC)C(=O)NCCCc1ccccc1 [Compound 8, (2s, 3s)-2-ethoxycarbonyl-3-[2-[(s)-4-methylthio-1-carbonyl-1-(3-phenylpropylamino)butane]formylamino]epoxysuccinic acid] | 2950 nM | 1500 nM | 2220 nM | 10600 nM | 9450 nM | 10000 nM
CCCCCCNC(=O)[C@H](CCSC)NC(=O)[C@H]1O[C@@H]1C(=O)OCC [Compound 5, (2s, 3s)-2-ethoxycarbonyl-3-[2-[(s)-4-methylthio-1-carbonyl-1-(hexylamino)butane]formylamino]epoxysuccinic acid] | 1680 nM | 1320 nM | 1500 nM | 4080 nM | 4140 nM | 4110 nM

The remaining compounds from weak to strong by IC50 (Cathepsin K; [1]), led by results:

IC50 (Cathepsin K; [1]) | IC50 (Cathepsin K; [2]) | IC50 (Cathepsin K; [3]) | IC50 (Cathepsin S; [1]) | IC50 (Cathepsin S; [2]) | IC50 (Cathepsin S; [3]) | Structure (SMILES)
1680 nM | 1610 nM | 1650 nM | 5110 nM | 8750 nM | 6930 nM | CCOC(=O)[C@H]1O[C@@H]1C(=O)N[C@@H](CCSC)C(=O)NC(CC)CC [Compound 39, (2s, 3s)-2-ethoxycarbonyl-3-[2-[(s)-4-methylthio-1-carbonyl-1-(1-ethylpropylamino)butane]formylamino]epoxysuccinic acid]
586 nM | 448 nM | 517 nM | 1600 nM | 1660 nM | 1630 nM | CCOC(=O)[C@H]1O[C@@H]1C(=O)N[C@@H](CCSC)C(=O)NCCc1cccc(F)c1 [Compound 34, (2s, 3s)-2-ethoxycarbonyl-3-[2-[(s)-4-methylthio-1-carbonyl-1-(3-fluorophenylethylamino)butane]formylamino]epoxysuccinic acid]
488 nM | 465 nM | 477 nM | 753 nM | 571 nM | 662 nM | CCOC(=O)[C@H]1O[C@@H]1C(=O)N[C@@H](CC(C)C)C(=O)NCCC(C)C [zxy-37, E64d, reference compound]
180 nM | 148 nM | 164 nM | 1900 nM | 957 nM | 1430 nM | CCOC(=O)[C@H]1O[C@@H]1C(=O)N[C@@H](CCSC)C(=O)N1CCC(c2ccccc2)CC1 [Compound 13, (2s, 3s)-2-ethoxycarbonyl-3-[2-[(s)-4-methylthio-1-carbonyl-1-(phenylpiperidinyl)butane]formylamino]epoxysuccinic acid]
